According to patent publication US11530244B2, “Cyclic polypeptides for PCSK9 inhibition” (priority 2018, dated 2022):
Starred links: 1 amine or outer side, 2 acyl side, 3 side chain; linkers in the order of their positions; H or OH if unused. Positions of bridges follow the written chain, without caps; N, C: chain ends. Non-standard residues stand in square brackets, D forms with d. Residues, ends and D or L forms follow the SMILES beside them. Groups on a side chain read outwards from the residue. *: point of attachment. Nle(6-ylidene) = O=C([C@H](CCCC=[*:3])N[*:1])[*:2]; X25 = O=C([C@H](Cc1cccc(OCC=[*:3])c1)N[*:1])[*:2]; NMeTrp(1-Me) = CN[C@@H](Cc1cn(C)c2ccccc12)C(=O)O; Phe(4-COOH) = N[C@@H](Cc1ccc(C(=O)O)cc1)C(=O)O; Trp(5-F) = N[C@@H](Cc1c[nH]c2ccc(F)cc12)C(=O)O; Trp(6-F) = N[C@@H](Cc1c[nH]c2cc(F)ccc12)C(=O)O; X10 = O=C(CCSCc1ccc2ccc(CSCCN[*:1])cc2c1)[*:2]; Phe(4-CH2NH2) = NCc1ccc(C[C@H](N)C(=O)O)cc1; Asp(3,3-Me2) = CC(C)(C(=O)O)[C@H](N)C(=O)O; Pro(cis-4-F) = O=C(O)[C@@H]1C[C@H](F)CN1; X4 = O=C(CCSCc1cccc(CSCCN[*:1])c1)[*:2]; γGlu = O=C(O)[C@H](CCC(=O)[*:2])N[*:1]; 2Nal = N[C@@H](Cc1ccc2ccccc2c1)C(=O)O; mXylylene = c1cc(C[*:1])cc(C[*:2])c1; NMeY = CN[C@@H](Cc1ccc(O)cc1)C(=O)O; Palmitoyl = CCCCCCCCCCCCCCCC(=O)*; X6 = O=C(Cc1ccc(CN[*:2])cc1)[*:1]; aThr = C[C@H](O)[C@H](N)C(=O)O; dNMeL = CN[C@H](CC(C)C)C(=O)O; αMeP = C[C@@]1(C(=O)O)CCCN1; Orn = NCCC[C@H](N)C(=O)O; Dab = NCC[C@H](N)C(=O)O; Nva = CCC[C@H](N)C(=O)O; AEEA = NCCOCCOCC(=O)O; X2 = O=C(C[*:2])[*:1]; Ahx = NCCCCCC(=O)O; Mpa = O=C(O)CCS

Experiments:
Assay type in all cases: binding
[1] = molecular target: T1, PCSK9 (Homo sapiens (Human), UniProt Q8NBP7); assay: PCSK9 Alexa FRET Standard assay (displacement of AlexaFluor647 tagged cyclic peptide Reagent A); settings: 0.5 nM PCSK9, 20 nM AF cyclic peptide Reagent A
In short: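 TR-FRET displacement: 0.5 nM biotinylated PCSK9 with 1.25 nM Strep-Eu and 20 nM AlexaFluor-tagged cyclic peptide (final) in 50 mM HEPES pH 7.4, 0.15 M NaCl, 5 mM CaCl2, 0.01% BSA, 0.01% P20, ≥2 h at room temperature. IC50 from sigmoidal fit, converted to Ki via peptide KD; falling Eu counts flagged false positives.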

[2] = molecular target: T1, PCSK9; assay: PCSK9 Alexa FRET Plus assay (displacement of AlexaFluor647 tagged cyclic peptide Reagent B); settings: 0.5 nM PCSK9, 960 nM AF cyclic peptide Reagent B
Description: A solution containing 1 nM biotinylated PCSK9+2.5 nM Lance Streptavidin Europium (Strep-Eu) was made in 50 mM HEPES pH 7.4, 0.15 M NaCl, 5 mM CaCl2), 0.01% BSA, and 0.01% Surfactant P20. A separate solution containing 1920 nM of the AlexaFluor tagged cyclic peptide was made in the same buffer system. An Echo was used to transfer 0.075 ul of compound plus 0.675 ul of DMSO to each well of an assay plate followed by the addition of 15 ul of PCSK9+Stept-Eu and 15 ul of AF peptide. The final assay volume was 30.750 ul containing 0.5 nM PCSK9, 1.25 nM Strep-Eu, and 960 nM AF cyclic peptide. The reaction was incubated at room temperature for at least two hours prior to fluorescence measurements using an Envision Multilabel Reader. IC50 values were determined by fitting data to a sigmoidal dose-response curve using nonlinear regression. Ki was then calculated from the IC50 and the KD of AF cyclic peptide. Counts (B-counts) of the europium-labeled PCSK9 were followed to observe if compounds were adversely affecting PCSK9. A fall off of the B-counts likely indicated a false positive of inhibition. Data from this procedure was reported as “P=‘numerical value’ (nanomolar)”

[3] = molecular target: human PCSK9 / human LDLR EGFa domain interaction (Homo sapiens (Human), UniProt Q8NBP7); assay: TR-FRET assay of inhibition of the PCSK9-LDLR protein-protein interaction; settings: TR-FRET, 20 nM human PCSK9, 20 nM human LDLR EGFa domain, 2 hours room temperature; read-out: IC50
In short: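 20 nM biotin-avitag PCSK9 + 20 nM His-LDLR EGFa; 5 nM Ulight-SA / 5 nM Eu-anti-His; 2 h RT; HEPES 50 mM, NaCl 150 mM, CaCl2 5 mM, 0.01% BSA, 0.01% P20. Half-maximal inhibition, 4-parameter fit.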

[4] = PCSK9 Alexa FRET Standard assay, read-out: IC50
[5] = Alexa FRET Plus, read-out: IC50

human PCSK9 / human LDLR EGFa domain interaction, sequence (Q8NBP7 153-692): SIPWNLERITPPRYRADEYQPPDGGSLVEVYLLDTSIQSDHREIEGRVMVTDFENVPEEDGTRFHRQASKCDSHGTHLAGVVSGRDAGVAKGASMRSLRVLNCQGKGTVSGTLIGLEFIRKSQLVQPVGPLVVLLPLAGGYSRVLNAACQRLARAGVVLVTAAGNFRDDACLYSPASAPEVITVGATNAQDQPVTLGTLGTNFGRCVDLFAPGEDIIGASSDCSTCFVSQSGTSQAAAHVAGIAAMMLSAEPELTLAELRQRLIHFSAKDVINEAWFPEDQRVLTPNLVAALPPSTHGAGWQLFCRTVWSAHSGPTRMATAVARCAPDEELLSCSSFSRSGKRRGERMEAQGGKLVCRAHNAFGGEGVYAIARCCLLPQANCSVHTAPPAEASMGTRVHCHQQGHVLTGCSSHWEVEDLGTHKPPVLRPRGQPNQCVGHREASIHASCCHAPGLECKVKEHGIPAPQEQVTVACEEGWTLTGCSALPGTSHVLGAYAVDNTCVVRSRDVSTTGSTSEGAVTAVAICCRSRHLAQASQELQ
human PCSK9 / human LDLR EGFa domain interaction, sequence (Q8NBP7 31-152 partner): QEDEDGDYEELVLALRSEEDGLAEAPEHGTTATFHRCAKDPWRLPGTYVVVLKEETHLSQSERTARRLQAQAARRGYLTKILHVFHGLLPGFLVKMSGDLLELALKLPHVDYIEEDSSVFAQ
T1 sequence (Q8NBP7 153-692): as the sequence (Q8NBP7 153-692) above

Row | Compound | IC50 [1, 4] | IC50 ([2]; IC50, Alexa FRET Plus) | IC50 ([1]; IC50, PCSK9 Alexa FRET Standard assay) | IC50 [2, 5] | IC50 [3]
1 | COc1ccc(C[C@@H]2NC(=O)[C@H]([C@@H](C)O)NC(=O)[C@@H]3C[C@H](F)CN3C(=O)[C@H](Cc3c[nH]c4ccc(F)cc34)NC(=O)[C@H](Cc3c[nH]c4ccc(F)cc34)NC(=O)[C@@H](C)NC(=O)CNC(=O)[C@@H](NC(C)=O)CCNCc3ccc(cc3)C[C@@H](C(N)=O)NC(=O)[C@]3(C)CCCN3C2=O)cc1 [Compound 102] | 0.11 to 100 nM | 500 to 5000 nM |  |  | 
2 | C[C@@]12CCCN1C(=O)[C@H](Cc1ccc(O)cc1)NC(=O)CN1C(=O)[C@@H](N=C(c3ccccc3)c3ccccc31)NC(=O)[C@H](Cc1c[nH]c3ccc(F)cc13)NC(=O)[C@H](Cc1c[nH]c3ccc(F)cc13)NC(=O)CNC(=O)[C@H](CCCCN)NC(=O)CCSCc1cccc(c1)CSC[C@@H](C(N)=O)NC2=O [Compound 122] |  | 0.1 to 100 nM | 0.11 to 100 nM |  | 
3 | CCCCCCCCCCCCCCCC(=O)N[C@@H](CCC(=O)NCCOCCOCC(=O)NCCOCCOCC(=O)NCCCC[C@@H]1NC(=O)CCSCc2cccc(c2)CSC[C@@H](C(N)=O)NC(=O)[C@]2(C)CCCN2C(=O)[C@H](Cc2ccc(O)cc2)NC(=O)[C@H](Cc2cnc[nH]2)NC(=O)[C@H](CC(=O)O)NC(=O)[C@H](Cc2c[nH]c3ccc(F)cc23)NC(=O)[C@H](Cc2c[nH]c3ccc(F)cc23)NC(=O)[C@@H](C)NC1=O)C(=O)O [Compound 456] ([Mpa]K([AEEA-AEEA-γGlu-Palmitoyl])[dA][Trp(5-F)][Trp(5-F)]DHY[αMeP]C-NH2; linker 1-10 via mXylylene) | 21000 to 50000 nM |  |  | 500 to 5000 nM | 
4 | COc1ccc(C[C@@H]2NC(=O)[C@H](Cc3cnc[nH]3)NC(=O)[C@H](CC(=O)O)NC(=O)[C@H](Cc3c[nH]c4ccc(F)cc34)NC(=O)[C@H](Cc3c[nH]c4ccc(F)cc34)NC(=O)[C@@H](C)NC(=O)CCc3cn(nn3)-c3ccc(cc3)C[C@@H](C(N)=O)NC(=O)[C@]3(C)CCCN3C2=O)cc1 [Compound 416] | 0.11 to 100 nM |  |  | 0.1 to 100 nM | 
5 | COc1ccc(C[C@@H]2NC(=O)[C@H](Cc3cnc[nH]3)NC(=O)[C@H](CC(=O)O)NC(=O)[C@H](Cc3c[nH]c4cc(F)ccc34)NC(=O)[C@H](Cc3c[nH]c4ccc(F)cc34)NC(=O)[C@@H](C)NC(=O)[C@H](CCCCN)NC(=O)CCCc3cn(nn3)-c3ccc(cc3)C[C@@H](C(N)=O)NC(=O)[C@]3(C)CCCN3C2=O)cc1 [Compound 369] | 100 to 1000 nM |  |  |  | 0.1 to 100 nM
6 | CCC[C@@H]1NC(=O)CCSCc2cccc(c2)CSC[C@@H](C(N)=O)NC(=O)[C@@H]2CCCN2C(=O)[C@H](Cc2ccc(OC)cc2)NC(=O)[C@H]([C@@H](C)OC)NC(=O)[C@@H]2CCCN2C(=O)[C@H](Cc2cn(C)c3ccccc23)N(C)C(=O)[C@H](Cc2ccc3ccccc3c2)NC(=O)[C@@H](CC(C)C)N(C)C1=O [Compound 038] ([Mpa][Nva][dNMeL][2Nal][NMeTrp(1-Me)]PT(Me)Y(Me)PC-NH2; linker 1-10 via mXylylene) | 0.11 to 100 nM |  |  |  | 0.1 to 100 nM
7 | COc1ccc(C[C@@H]2NC(=O)[C@H]([C@H](C)O)NC(=O)[C@@H]3C[C@H](F)CN3C(=O)[C@H](Cc3c[nH]c4cc(F)ccc34)NC(=O)[C@H](Cc3c[nH]c4ccc(F)cc34)NC(=O)[C@@H](C)NC(=O)CCCCCNC(=O)c3ccc(cc3)C[C@@H](C(N)=O)NC(=O)[C@]3(C)CCCN3C2=O)cc1 [Compound 057] ([Ahx][dA][Trp(5-F)][Trp(6-F)][Pro(cis-4-F)][aThr]Y(Me)[αMeP][Phe(4-COOH)]-NH2; lactam N-9) | 21000 to 50000 nM |  |  |  | 1000 to 12100 nM
8 | CC(=O)N[C@H]1CCCNC(=O)c2ccc(cc2)C[C@@H](C(N)=O)NC(=O)[C@]2(C)CCCN2C(=O)[C@H](Cc2ccc(O)cc2)NC(=O)[C@H](Cc2cnc[nH]2)NC(=O)[C@H](CC(=O)O)NC(=O)[C@H](Cc2c[nH]c3cc(F)ccc23)NC(=O)[C@H](Cc2c[nH]c3ccc(F)cc23)NC(=O)CNC(=O)[C@H](C)NC1=O [Compound 314] (Ac-[Orn]AG[Trp(5-F)][Trp(6-F)]DHY[αMeP][Phe(4-COOH)]-NH2; lactam 1-10) | 1000 to 12100 nM |  |  |  | 100 to 1000 nM
9 | COc1ccc(C[C@@H]2NC(=O)[C@H](Cc3cnc[nH]3)NC(=O)[C@H](CC(=O)O)NC(=O)[C@H](Cc3c[nH]c4ccc(F)cc34)NC(=O)[C@H](Cc3c[nH]c4ccc(F)cc34)NC(=O)[C@@H](C)NC(=O)[C@H](CCCCN)NC(=O)CCSCc3ccc4ccc(cc4c3)CSCCNC(=O)[C@]3(C)CCCN3C2=O)cc1 [Compound 405] (cyclo(DHY(Me)[αMeP][X10]K[dA][Trp(5-F)][Trp(5-F)])) | 100 to 1000 nM |  |  |  | 0.1 to 100 nM
10 | COc1ccc(C[C@@H]2NC(=O)[C@H](Cc3cnc[nH]3)NC(=O)[C@H](CC(=O)O)NC(=O)[C@H](Cc3c[nH]c4ccc(F)cc34)NC(=O)[C@H](Cc3c[nH]c4ccc(F)cc34)NC(=O)[C@@H](C)NC(=O)[C@H](NC(C)=O)CCCCNC(=O)Cc3ccc(cc3)CNC(=O)C[C@@H](C(N)=O)NC(=O)[C@]3(C)CCCN3C2=O)cc1 [Compound 397] (Ac-[dK][dA][Trp(5-F)][Trp(5-F)]DHY(Me)[αMeP]D-NH2; linker 1-9 via X6) | 1000 to 12100 nM |  |  |  | 1000 to 12100 nM
11 | C[C@H]1NC(=O)[C@H](CCCCN)NC(=O)CCSCc2cccc(c2)CSCCNC(=O)[C@]2(C)CCCN2C(=O)[C@H](Cc2ccc(O)cc2)N(C)C(=O)[C@H](Cc2c[nH]cn2)NC(=O)[C@H](C(C)(C)C(=O)O)NC(=O)[C@H](Cc2c[nH]c3ccc(F)cc23)NC(=O)[C@H](Cc2c[nH]c3ccc(F)cc23)NC1=O [Compound 383] (cyclo(H[NMeY][αMeP][X4]K[dA][Trp(5-F)][Trp(5-F)][Asp(3,3-Me2)])) | 100 to 1000 nM |  |  |  | 0.1 to 100 nM
12 | COc1ccc(C[C@@H]2NC(=O)[C@H](Cc3cnc[nH]3)NC(=O)[C@H](CC(=O)O)NC(=O)[C@H](Cc3c[nH]c4ccc(F)cc34)NC(=O)[C@H](Cc3c[nH]c4ccc(F)cc34)NC(=O)[C@@H](C)NC(=O)[C@H](CCCCN)NC(=O)[C@@H](NC(C)=O)CCNC(=O)COc3ccc(cc3)C[C@@H](C(N)=O)NC(=O)[C@]3(C)CCCN3C2=O)cc1 [Compound 409] (Ac-[Dab]K[dA][Trp(5-F)][Trp(5-F)]DHY(Me)[αMeP]Y-NH2; linker 1-10 via X2) | 100 to 1000 nM |  |  |  | 0.1 to 100 nM
13 | COc1ccc(C[C@@H]2NC(=O)[C@H]([C@@H](C)O)NC(=O)[C@@H]3CCC/C=C/COc4cccc(c4)C[C@H](NC(=O)[C@@H](C)NC(=O)[C@H](CCCCN)NC(=O)CCSCc4cccc(c4)CSCCNC(=O)[C@]4(C)CCCN4C2=O)C(=O)N[C@@H](Cc2c[nH]c4ccc(F)cc24)C(=O)N3)cc1 [Compound 494] (cyclo(K[dA][X25][Trp(5-F)][Nle(6-ylidene)]TY(Me)[αMeP][X4]); staple (E) 3-5) | 1000 to 12100 nM |  |  |  | 1000 to 12100 nM
14 | COc1ccc(C[C@@H]2NC(=O)[C@@H]3CCC/C=C\CO[C@H]4C[C@@H](C(=O)N3)N(C4)C(=O)[C@H](Cc3c[nH]c4ccc(F)cc34)NC(=O)[C@H](Cc3c[nH]c4ccc(F)cc34)NC(=O)[C@@H](C)NC(=O)[C@H](CCCCN)NC(=O)CCSCc3cccc(c3)CSC[C@@H](C(N)=O)NC(=O)[C@]3(C)CCCN3C2=O)cc1 [Compound 500] | 1000 to 12100 nM |  |  |  | 1000 to 12100 nM
15 | COc1ccc(C[C@@H]2NC(=O)[C@H]([C@@H](C)O)NC(=O)[C@@H]3C[C@H](F)CN3C(=O)[C@H](Cc3c[nH]c4ccc(F)cc34)NC(=O)[C@H](Cc3c[nH]c4ccc(F)cc34)NC(=O)[C@@H](C)NC(=O)[C@H](CCCCN)NC(=O)[C@@H](NC(C)=O)CC(=O)NCc3ccc(cc3)C[C@@H](C(N)=O)NC(=O)[C@]3(C)CCCN3C2=O)cc1 [Compound 066] (Ac-DK[dA][Trp(5-F)][Trp(5-F)][Pro(cis-4-F)]TY(Me)[αMeP][Phe(4-CH2NH2)]-NH2; lactam 1-10) | 0.11 to 100 nM |  |  |  | 0.1 to 100 nM
